Measured values published in patent publication US20230172914A1, “BIOMARKER-BASED THERAPEUTIC COMPOSITION” (WELLMARKER BIO CO., LTD., priority 2019, published 2023).

Experiments:
[1] = system: active RON (pTyr-RON); experiment: Western blotting of active RON in KM12C; format: cell-based, human
Description: The cell killing efficacy of Example 18 and Comparative Example 1 was analyzed, and then the cells were collected. Western blotting was performed to identify inhibitory capacity of Example 18 on active RON. RIPA Lysis Buffer (T&I) was added to the respective cells so as to achieve lysis. Then, BCA kit (Pierce) was used to quantify proteins. The proteins were loaded onto 6% SDS-polyacrylamide with a protein concentration of 40 μg, and electrophoresis was performed at 125 V.
Subsequently, the proteins were reacted with primary antibody (active RON, beta actin), which was diluted 1:1,000 in 5% non-fat skim milk-TBST solution, at 4° C. for 24 hours or 48 hours. Then, washing with TBST was performed three times. The resultant was reacted with anti-rabbit and anti-mouse IgG conjugated horseradish peroxidase (HRP) secondary antibody, which was diluted at 1:1,000, at room temperature for 2 hours. Then, washing with TBST was washed three times. Subsequently, the membrane was treated with the ECL solution (GE Healthcare), and developed by exposure to an X-ray film. Then, the bands were checked.

[2] = system: KM12C cell line (active RON/RON mutant (Δ160)) tumor; experiment: Tumor growth inhibition in animal model transplanted with KM12C (Experimental Example 10); format: in vivo, BALB/c nude mice
Description: 5-Week-old female BALB/c nude mice were purchased and acclimatized for 1 week. Then, human-derived colon cancer cell line KM12C (1.5×10^6 cells/mice) (cell line expressing active RON/RON mutant (Δ160)) was diluted in PBS, and injected subcutaneously (100 μl) into the right dorsal side of the mice. Comparative Examples 1 and Example 18 were orally administered when the tumor reached a size of about 100 mm^3. The drug was administered once a day for 2 weeks, and tumor size and body weight were measured twice a week. […] In addition, after completion of the drug administration, the experimental animals were euthanized, and then the tumors were extracted and weighed.
In addition, a portion of the extracted tumor tissue was fixed with 10% formalin, and then a paraffin block was produced therefrom. Then, changes in expression of each protein were checked through immunochemical staining. As a result, it was identified that in the group having received Example 18, expression of the active RON and p-ERK decreases, whereas expression of cleaved caspase 3 is induced (FIG. 11). Tumor tissues were collected from the vehicle group and the 5 mpk (mg/kg) treatment group, and changes in protein expression were compared through Western blotting.

[3] = system: colon cancer patient-derived cancer tissue (RON mutant: Δ160); experiment: Efficacy in animal model transplanted with colon cancer patient tissue, 50 mpk; format: in vivo, BALB/c nude mice; conditions: 50 mpk oral, daily for 4 weeks
Description: 5-week-old female BALB/c nude mice were purchased and acclimatized for 1 week. Then, colon cancer patient-derived cancer tissue was transplanted into the right dorsal side of the mice. Example 18 was orally administered when the tumor reached a size of about 100 mm^3. The drug was administered once a day for 4 weeks, and tumor size and body weight were measured twice a week to perform comparative analysis. After completion of the drug administration, the experimental animals were euthanized, and then the tumors were extracted and weighed to perform comparative analysis.
As a result, it was identifiable that tumor growth is inhibited in a case where Example 18 is administered to an animal model (RON mutant: Δ160) into which tumor cells in colon cancer patients have been transplanted. The drug was orally administered on a daily basis, and the dose used was 50 mpk. As a result of drug administration for 4 weeks, it was identified that tumor growth is inhibited by 80% or more (FIG. 18). In addition, after completion of the drug administration, the tumor tissues were extracted and weighed to perform comparative analysis. […] The lower pictures of FIG. 19 show tumors extracted from representative individuals of the respective groups.

[4] = system: colon cancer patient-derived cell line expressing active RON; experiment: Cell death in colon cancer patient-derived cell line expressing active RON (immunofluorescence); format: cell-based, human; conditions: 5 ug, 48 hours, KRAS normal
Description: (§1) The following condition and methods were used to perform the present experiment. […] Then, the respective cell lines were seeded at 5×10^5 cells onto 24-well plates, in which one sterile 12 mmΦ microscope cover glass was placed on each well, and incubated. The respective colon cancer patient-derived cell lines under incubation were subjected to treatment with Example 18 and Comparative Example 1, respectively, at 5 ug, and then incubated for 48 hours. Each incubated plate was washed twice with PBS, and then fixed with 100% Me-OH at room temperature for 5 minutes. The Me-OH was removed, and washing with PBS was performed three times for 5 minutes each. Then, 100 ul of 0.1% Triton X-100 (in PBS) was dispensed thereinto and permeabilization was allowed to occur for 5 minutes. Washing with PBS was performed three times for 5 minutes each, and then PBS was added thereto to prevent drying. Parafilm was attached to the 24-well plate cover, and then PBS-T (PBS+0.1% Tween 20) containing 3% BSA was dropped by 20 μl onto the parafilm. […] Then, washing with PBS-T (PBS+0.1% Tween 20) was performed twice, and a fluorescence microscope was used to identify the staining. […] Then, the cover glass was placed thereon, and a fluorescence microscope was used to take a fluorescence image.

[5] = system: colon cancer patient-derived cell line in which RON is not expressed; experiment: Cell death in colon cancer patient-derived cell line, active RON negative (immunofluorescence); format: cell-based, human; conditions: 5 ug, 48 hours, KRAS normal
Description: as §1

[6] = 5 mpk (mg/kg) treatment group vs vehicle

## CCOc1ccn(-c2ccc(F)cc2)c(=O)c1C(=O)Nc1ccc(Oc2ccnc3cc(-c4ccc(CN5CCOCC5)cn4)sc23)c(F)c1.Cl [Example 18, 4-ethoxy-N-[3-fluoro-4-({2-[5-(morpholinomethyl)pyridin-2-yl]thieno[3,2-b]pyridine-7-yl}oxy)phenyl]-1-(4-fluorophenyl)-2-oxo-1,2-dihydropyridine-3-carboxamide hydrochloride]
[1]
  expression of active RON (Western blotting): decreases
[2]; [6]
  active RON expression level in tumor tissue (Western blotting): decreased expression level
  cleaved caspase 3 expression level in tumor tissue (Western blotting): increased expression level
[2]; extracted tumor tissue
  expression of cleaved caspase 3 in tumor tissue (immunochemical staining): induced
  expression of the active RON and p-ERK in tumor tissue (immunochemical staining): decreases
[2]; oral, once a day for 2 weeks
  change in mouse body weight: no change in mouse body weight
  tumor growth inhibition efficacy (tumor size): tumor growth inhibition efficacy with drug administration was observed
  tumor weight compared with the vehicle group: decreased tumor weight was observed
[3]
  tumor growth inhibition (extracted tumor weight) compared with the vehicle: about 83%
  tumor growth inhibition (tumor size): ≥ 80%
[4]
  cell death-inducing efficacy (cleaved caspase 3 immunofluorescence): exhibits cell death-inducing efficacy
[5]
  reactivity to drug treatment (cell death): no reactivity
